Laboratory results as given in ChEMBL document CHEMBL1201862, “PubChem BioAssay data set” (2004).
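1) Cells in 96-well plates. 2) Compound, 48 h, 5 concentrations. 3) Linear interpolation between surrounding doses. 4) Unreached endpoint = highest concentration. Abbreviation: GI50, concentration required for 50% inhibition of growth.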 Activity calls are given as the source filed them. Rule as the data show it: active = GI50 up to about 1.1 µM and inactive = higher.

Legend:
Assay in all cases: NCI-60 cell line screen, 48 h
[1] = tested on: 786-0
[2] = tested on: ACHN
[3] = tested on: BT-549
[4] = tested on: COLO 205
[5] = tested on: EKVX
[6] = tested on: HCC 2998
[7] = tested on: LOX IMVI
[8] = tested on: M14
[9] = tested on: MCF7
[10] = tested on: MDA-MB-231
[11] = tested on: MDA-MB-435
[12] = tested on: NCI-H522
[13] = tested on: OVCAR-3
[14] = tested on: PC-3
[15] = tested on: SF-539
[16] = tested on: SK-MEL-28
[17] = tested on: SN12C
[18] = tested on: SNB-19
[19] = tested on: UACC-62
[20] = tested on: SR

Measured: GI50

Cn1c(=O)c2c(O)cc(N)nc2n(C)c1=O
inactive: [1] > 100 µM | [2] > 100 µM | [3] > 100 µM | [4] > 100 µM | [5] > 100 µM | [6] > 100 µM | [7] > 100 µM | [8] > 100 µM | [9] > 100 µM | [10] > 100 µM | [11] > 100 µM | [12] > 100 µM | [13] > 100 µM | [14] > 100 µM | [15] > 100 µM | [16] > 100 µM | [17] > 100 µM | [18] > 100 µM | [19] > 100 µM

C=CC(=C)CCC(Br)C(C)(C)Cl (stereo not given)
inactive: [1] > 100 µM | [2] > 100 µM | [3] > 100 µM | [4] > 100 µM | [5] > 100 µM | [6] > 100 µM | [8] > 100 µM | [9] 46.6 µM | [10] > 100 µM | [11] > 100 µM | [12] 24.3 µM | [13] > 100 µM | [14] > 100 µM | [15] > 100 µM | [16] > 100 µM | [17] > 100 µM | [18] > 100 µM | [19] > 100 µM

O=C1CC(=O)c2c(Cl)sc(Cl)c21
inactive: [1] > 100 µM | [2] > 100 µM | [3] > 100 µM | [4] > 100 µM | [5] > 100 µM | [7] 52.8 µM | [8] > 100 µM | [9] 45.5 µM | [10] > 100 µM | [11] 64.1 µM | [12] 23.8 µM | [13] 86.5 µM | [15] > 100 µM | [16] 53.8 µM | [17] > 100 µM | [20] 25.6 µM | [19] 92.3 µM

CCN1CC(C)Cn2c(=O)[nH]c3cc(Br)cc1c32 (stereo not given)
inactive: [1] 22.6 µM | [2] 13.1 µM | [3] 4.1 µM | [4] 11 µM | [5] 3.3 µM | [6] 32.8 µM | [7] 21.4 µM | [8] 34.1 µM | [9] 17.3 µM | [10] 22.4 µM | [11] 2.75 µM | [13] 20.3 µM | [14] 30.9 µM | [15] 29.8 µM | [16] 35.7 µM | [17] 44.7 µM | [18] 26.4 µM | [19] 6.97 µM

Cc1ncn(-c2ccccc2O)c1C
inactive: [1] > 100 µM | [2] > 100 µM | [3] > 100 µM | [4] > 100 µM | [5] > 100 µM | [7] > 100 µM | [8] > 100 µM | [9] > 100 µM | [10] > 100 µM | [11] > 100 µM | [12] > 100 µM | [13] > 100 µM | [14] > 100 µM | [15] > 100 µM | [16] > 100 µM | [17] > 100 µM | [18] > 100 µM | [20] > 100 µM | [19] > 100 µM

Nc1ncnc2c1cnn2Cc1cn(COCC(O)CO)nn1 (stereo not given)
inactive: [1] > 100 µM | [2] > 100 µM | [3] > 100 µM | [4] > 100 µM | [5] > 100 µM | [6] > 100 µM | [7] > 100 µM | [8] > 100 µM | [9] > 100 µM | [10] > 100 µM | [11] > 100 µM | [12] 16.1 µM | [13] > 100 µM | [14] > 100 µM | [15] > 100 µM | [16] > 100 µM | [17] > 100 µM | [18] > 100 µM | [19] > 100 µM

CN(C)S(=O)(=O)c1ccc(Nc2ccc(O)c3c2C(=O)c2c([N+](=O)[O-])ccc(O)c2C3=O)cc1
inactive: [1] > 100 µM | [2] 55 µM | [3] > 100 µM | [4] 65.8 µM | [5] > 100 µM | [7] 64.7 µM | [8] > 100 µM | [9] > 100 µM | [10] 91.2 µM | [11] > 100 µM | [12] 52.8 µM | [13] > 100 µM | [14] > 100 µM | [16] > 100 µM | [17] > 100 µM | [18] > 100 µM | [20] 54.2 µM | [19] > 100 µM

CCCC1C(=O)Nc2cccc3ncn(c23)C1=O (stereo not given)
inactive: [1] > 100 µM | [2] > 100 µM | [3] > 100 µM | [4] > 100 µM | [5] > 100 µM | [8] > 100 µM | [9] > 100 µM | [10] > 100 µM | [11] > 100 µM | [13] > 100 µM | [14] > 100 µM | [15] > 100 µM | [16] > 100 µM | [17] > 100 µM | [18] > 100 µM | [20] > 100 µM | [19] > 100 µM
